Data as given in patent US20240150306A1, “COMPOUNDS WITH CLEAVABLE DISULFIDE MOIETIES” (REINVIGORON THERATECH, INC., priority 2022, published 2024).

Key:
[1] = system: 4T1 murine breast cancer cells; assay: Cell viability / cytotoxicity detection (ONE-Glo+Tox); type: cell-based
Method: (§1) 4T1 murine breast cancer cells were seeded into white 96-well plate with the density of 1×10^4 cells per well. After 24 h, cells were replaced by 180 μL fresh RPMI 1640 medium (10% FBS), and 20 μL mRNA-Luc or Luc-pDNA encapsulated CLLM Nanoparticle formulations were added with fixed 100 ng mRNA or 200 ng pDNA per well. Free mRNA-Luc or Luc-pDNA were used as the control. Cells were further incubated for 24 h and ONE-Glo+Tox kits were used for mRNA expression and cytotoxicity detection based on the standard protocol.

[2] = system: 4T1 murine breast cancer cells; assay: In vitro luciferase expression (ONE-Glo+Tox); type: cell-based; details: 100 ng mRNA or 200 ng pDNA per well, 24 h, FIGS. 11 and 12
Method: as §1

Question: With `CCCCCCCCCCCCCCOC(=O)CCN(CCSSCCN(C)C)CCC(=O)OCCCCCCCCCCCCCC` [CLLM-2] as the molecule, how does the “tolerability of drug delivery (mRNA nanoparticle formulations)” value ([1]; 100 ng mRNA in 200 uL medium per well, FIG. 11) read?
Answer: The value was “tolerated”.

Question: What about the “tolerability of drug delivery (pDNA nanoparticle formulations)” value ([1]; 200 ng pDNA in 200 uL medium per well, FIG. 12) of the same molecule?
Answer: The value was “tolerated”.

Question: What about the “luciferase expression / delivery of mRNA and pDNA into cells” value [2] of the same molecule?
Answer: Its value is “can deliver mRNA and pDNA into cells”.
